In PMC6044503 (ACS Omega, 2017):
Where “and” joins values, the source holds several entries; their conditions need not be identical. Identical values can stand only once. Where a SMILES comes first, the peptide text is derived from it. [ ]: non-standard residue; d: D form. The star is where a group is joined. 1Nal = N[C@@H](Cc1cccc2ccccc12)C(=O)O; 2Nal = N[C@@H](Cc1ccc2ccccc2c1)C(=O)O; Cyclohexanecarbonyl = O=C(C1CCCCC1)*; 1Naphthoyl = O=C(c1cccc2ccccc12)*; 2Naphthoyl = O=C(c1ccc2ccccc2c1)*; Cha = N[C@@H](CC1CCCCC1)C(=O)O; Nle = CCCC[C@H](N)C(=O)O; Aib = CC(C)(N)C(=O)O; Bz = O=C(c1ccccc1)*

Tests used:
human Y2R [1] = target: T1, human Y2R (Homo sapiens, UniProt P49146); assay: biochemical; assay type: binding
T1 sequence (P49146 1-381): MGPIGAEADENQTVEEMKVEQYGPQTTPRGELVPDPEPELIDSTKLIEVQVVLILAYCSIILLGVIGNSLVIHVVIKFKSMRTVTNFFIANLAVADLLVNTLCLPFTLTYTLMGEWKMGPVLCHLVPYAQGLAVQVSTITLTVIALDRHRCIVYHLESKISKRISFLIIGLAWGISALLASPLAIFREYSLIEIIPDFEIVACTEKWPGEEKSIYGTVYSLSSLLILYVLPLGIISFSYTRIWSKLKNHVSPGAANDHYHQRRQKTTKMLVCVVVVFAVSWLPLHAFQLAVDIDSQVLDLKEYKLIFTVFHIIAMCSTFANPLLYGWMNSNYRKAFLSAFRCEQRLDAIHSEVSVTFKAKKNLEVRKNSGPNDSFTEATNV

human Y2R [2] = target: T1, human Y2R; assay: biochemical; assay type: biochemical
male C57BL/6J mice = assay: Food intake assay, bolus ip administration in lean mice; assay type: in vivo, mouse; details: for % food intake inhibition: vs saline; for % food intake inhibition / % food intake inhibition (cumulative): mean ± SD; for minimum effective dose (food intake reduction): ip administration, lean mice
[3] = bolus ip 1000 nmol/kg, 3 h after administration
[4] = bolus ip 500 nmol/kg, 3 h after administration

Row | SMILES | IC50 (human Y2R [1]) [nM] | EC50 (human Y2R [2]) [nM] | % food intake inhibition (male C57BL/6J mice; [4]) | other results
1 | CCCC[C@H](NC(=O)[C@H](CC(C)C)NC(=O)[C@H](CC(N)=O)NC(=O)[C@@H](NC(=O)[C@H](CC1CCCCC1)NC(=O)[C@H](Cc1c[nH]cn1)NC(=O)[C@H](CCCNC(=N)N)NC(=O)c1ccccc1)[C@@H](C)CC)C(=O)N[C@H](C(=O)N[C@@H](CCCNC(=N)N)C(=O)N[C@@H](CCC(N)=O)C(=O)N[C@@H](CCCNC(=N)N)C(=O)N[C@@H](CC1CCCCC1)C(N)=O)[C@@H](C)O [Compound 7] (Bz-RH[Cha]INL[Nle]TRQR[Cha]-NH2) | 13 | 2.4 |  | % food intake inhibition (male C57BL/6J mice; [3]): 12 ± 5%
2 | CC[C@H](C)[C@H](NC(=O)[C@H](CC1CCCCC1)NC(=O)[C@H](Cc1c[nH]cn1)NC(=O)[C@H](CCCNC(=N)N)NC(=O)c1ccccc1)C(=O)N[C@@H](CC(N)=O)C(=O)N[C@@H](CC(C)C)C(=O)N[C@@H](CCCCN)C(=O)N[C@H](C(=O)N[C@@H](CCCNC(=N)N)C(=O)N[C@@H](CCC(N)=O)C(=O)N[C@@H](CCCNC(=N)N)C(=O)N[C@@H](CC1CCCCC1)C(N)=O)[C@@H](C)O [Compound 9] (Bz-RH[Cha]INLKTRQR[Cha]-NH2) | 1.6 | 0.62 |  | agonist activity, fold increase compared to that of 4 (human Y2R [2]; relative to compound 4): more than 4 fold; % food intake inhibition (male C57BL/6J mice; [3]): –15 ± 7%
3 | CC[C@H](C)[C@H](NC(=O)[C@H](CC1CCCCC1)NC(=O)[C@H](Cc1c[nH]cn1)NC(=O)[C@H](CCCNC(=N)N)NC(=O)C1CCCCC1)C(=O)N[C@@H](CC(N)=O)C(=O)N[C@@H](Cc1c[nH]c2ccccc12)C(=O)N[C@H](C(=O)N[C@H](C(=O)N[C@@H](CCCNC(=N)N)C(=O)N[C@@H](CCC(N)=O)C(=O)N[C@@H](CCCNC(=N)N)C(=O)N[C@@H](CC1CCCCC1)C(N)=O)[C@@H](C)O)[C@@H](C)CC [Compound 13] (Cyclohexanecarbonyl-RH[Cha]INWITRQR[Cha]-NH2) | 6.8 | 1.7 | 8 ± 6% | 
4 | CC[C@H](C)[C@H](NC(=O)[C@H](Cc1c[nH]c2ccccc12)NC(=O)[C@H](CC(N)=O)NC(=O)[C@H](CC1CCCCC1)NC(=O)[C@H](CC1CCCCC1)NC(=O)[C@H](Cc1c[nH]cn1)NC(=O)[C@H](CCCNC(=N)N)NC(=O)C1CCCCC1)C(=O)N[C@H](C(=O)N[C@@H](CCCNC(=N)N)C(=O)N[C@@H](CCC(N)=O)C(=O)N[C@@H](CCCNC(=N)N)C(=O)N[C@@H](CC1CCCCC1)C(N)=O)[C@@H](C)O [Compound 14] (Cyclohexanecarbonyl-RH[Cha][Cha]NWITRQR[Cha]-NH2) | 15 | 11 | 23 ± 7% | 
5 | CC[C@H](C)[C@H](NC(=O)[C@H](CC1CCCCC1)NC(=O)[C@H](Cc1c[nH]cn1)NC(=O)[C@H](CCCNC(=N)N)NC(=O)C1CCCCC1)C(=O)N[C@@H](CC(N)=O)C(=O)N[C@@H](CC(C)C)C(=O)NC(C)(C)C(=O)N[C@H](C(=O)N[C@@H](CCCNC(=N)N)C(=O)N[C@@H](CCC(N)=O)C(=O)N[C@@H](CCCNC(=N)N)C(=O)N[C@@H](CC1CCCCC1)C(N)=O)[C@@H](C)O [Compound 16] (Cyclohexanecarbonyl-RH[Cha]INL[Aib]TRQR[Cha]-NH2) | 4.9 | 1.6 | 5 ± 13% | 
6 | CC[C@H](C)[C@H](NC(=O)[C@H](CC1CCCCC1)NC(=O)[C@H](Cc1c[nH]cn1)NC(=O)[C@H](CCCNC(=N)N)NC(=O)C1CCCCC1)C(=O)N[C@@H](CC(N)=O)C(=O)N[C@@H](Cc1c[nH]c2ccccc12)C(=O)NC(C)(C)C(=O)N[C@H](C(=O)N[C@@H](CCCNC(=N)N)C(=O)N[C@@H](CCC(N)=O)C(=O)N[C@@H](CCCNC(=N)N)C(=O)N[C@@H](CC1CCCCC1)C(N)=O)[C@@H](C)O [Compound 17] (Cyclohexanecarbonyl-RH[Cha]INW[Aib]TRQR[Cha]-NH2) | 5.7 | 1.9 | 24 ± 5% | 
7 | CC(C)C[C@H](NC(=O)[C@H](CC(N)=O)NC(=O)[C@H](Cc1c[nH]c2ccccc12)NC(=O)[C@H](CC1CCCCC1)NC(=O)[C@H](Cc1c[nH]cn1)NC(=O)[C@H](CCCNC(=N)N)NC(=O)c1ccccc1)C(=O)NC(C)(C)C(=O)N[C@H](C(=O)N[C@@H](CCCNC(=N)N)C(=O)N[C@@H](CCC(N)=O)C(=O)N[C@@H](CCCNC(=N)N)C(=O)N[C@@H](CC1CCCCC1)C(N)=O)[C@@H](C)O [Compound 18] (Bz-RH[Cha]WNL[Aib]TRQR[Cha]-NH2) | 6.4 | 1.6 | 2 ± 8% | 
8 | CC(C)C[C@H](NC(=O)[C@H](CC(N)=O)NC(=O)[C@H](Cc1cccc2ccccc12)NC(=O)[C@H](CC1CCCCC1)NC(=O)[C@H](Cc1c[nH]cn1)NC(=O)[C@H](CCCNC(=N)N)NC(=O)c1ccccc1)C(=O)NC(C)(C)C(=O)N[C@H](C(=O)N[C@@H](CCCNC(=N)N)C(=O)N[C@@H](CCC(N)=O)C(=O)N[C@@H](CCCNC(=N)N)C(=O)N[C@@H](CC1CCCCC1)C(N)=O)[C@@H](C)O [Compound 19] (Bz-RH[Cha][1Nal]NL[Aib]TRQR[Cha]-NH2) | 9.1 | 2.7 | 41 ± 5% | 
9 | CC(C)C[C@H](NC(=O)[C@H](CC(N)=O)NC(=O)[C@H](Cc1ccc2ccccc2c1)NC(=O)[C@H](CC1CCCCC1)NC(=O)[C@H](Cc1c[nH]cn1)NC(=O)[C@H](CCCNC(=N)N)NC(=O)c1ccccc1)C(=O)NC(C)(C)C(=O)N[C@H](C(=O)N[C@@H](CCCNC(=N)N)C(=O)N[C@@H](CCC(N)=O)C(=O)N[C@@H](CCCNC(=N)N)C(=O)N[C@@H](CC1CCCCC1)C(N)=O)[C@@H](C)O [Compound 20] (Bz-RH[Cha][2Nal]NL[Aib]TRQR[Cha]-NH2) | 29 | 7.5 | 18 ± 2% | 
10 | CC(C)C[C@H](NC(=O)[C@H](CC(N)=O)NC(=O)[C@H](CC1CCCCC1)NC(=O)[C@H](CC1CCCCC1)NC(=O)[C@H](Cc1c[nH]cn1)NC(=O)[C@H](CCCNC(=N)N)NC(=O)c1ccccc1)C(=O)NC(C)(C)C(=O)N[C@H](C(=O)N[C@@H](CCCNC(=N)N)C(=O)N[C@@H](CCC(N)=O)C(=O)N[C@@H](CCCNC(=N)N)C(=O)N[C@@H](CC1CCCCC1)C(N)=O)[C@@H](C)O [Compound 21, benzoyl-[Cha^27,28,36,Aib^31]PYY(25–36)] (Bz-RH[Cha][Cha]NL[Aib]TRQR[Cha]-NH2) |  |  | 49% and 49 ± 4% | binding affinity, fold lower than that of PYY3–36 (human Y2R [1]): more than 10 fold; agonist activity, fold lower than that of PYY3–36 (human Y2R [2]): more than 10 fold; % food intake inhibition (male C57BL/6J mice; bolus ip 250 nmol/kg, 3 h after administration): 32 ± 3%; % food intake inhibition (cumulative) (male C57BL/6J mice; ip 3 nmol/kg, 3 h after administration): –1 ± 6%; % food intake inhibition (cumulative) (male C57BL/6J mice; ip 3 nmol/kg, 6 h after administration): –1 ± 2%; % food intake inhibition (cumulative) (male C57BL/6J mice; ip 3 nmol/kg, 24 h after administration): –7 ± 5%; % food intake inhibition (cumulative) (male C57BL/6J mice; ip 30 nmol/kg, 3 h after administration): 20 ± 6%; % food intake inhibition (cumulative) (male C57BL/6J mice; ip 30 nmol/kg, 6 h after administration): 18 ± 3%; % food intake inhibition (cumulative) (male C57BL/6J mice; ip 30 nmol/kg, 24 h after administration): –2 ± 3%; % food intake inhibition (cumulative) (male C57BL/6J mice; ip 300 nmol/kg, 3 h after administration): 47 ± 3%; % food intake inhibition (cumulative) (male C57BL/6J mice; ip 300 nmol/kg, 6 h after administration): 45 ± 2%; % food intake inhibition (cumulative) (male C57BL/6J mice; ip 300 nmol/kg, 24 h after administration): 8 ± 3%; minimum effective dose (food intake reduction) (male C57BL/6J mice; food intake 3 and 6 h after dosing): 30 nmol/kg; minimum effective dose (food intake reduction) (male C57BL/6J mice; mass equivalent of 30 nmol/kg): ca. 52 μg/kg
11 | CC(C)C[C@H](NC(=O)[C@H](CC(N)=O)NC(=O)[C@H](CC1CCCCC1)NC(=O)[C@H](CC1CCCCC1)NC(=O)[C@H](Cc1c[nH]cn1)NC(=O)[C@H](CCCNC(=N)N)NC(=O)C1CCCCC1)C(=O)NC(C)(C)C(=O)N[C@H](C(=O)N[C@@H](CCCNC(=N)N)C(=O)N[C@@H](CCC(N)=O)C(=O)N[C@@H](CCCNC(=N)N)C(=O)N[C@@H](CC1CCCCC1)C(N)=O)[C@@H](C)O [Compound 22] (Cyclohexanecarbonyl-RH[Cha][Cha]NL[Aib]TRQR[Cha]-NH2) | 11 | 4 | 25 ± 7% | 
12 | CC(C)C[C@H](NC(=O)[C@H](CC(N)=O)NC(=O)[C@H](CC1CCCCC1)NC(=O)[C@H](CC1CCCCC1)NC(=O)[C@H](Cc1c[nH]cn1)NC(=O)[C@H](CCCNC(=N)N)NC(=O)c1cccc2ccccc12)C(=O)NC(C)(C)C(=O)N[C@H](C(=O)N[C@@H](CCCNC(=N)N)C(=O)N[C@@H](CCC(N)=O)C(=O)N[C@@H](CCCNC(=N)N)C(=O)N[C@@H](CC1CCCCC1)C(N)=O)[C@@H](C)O [Compound 25] (1Naphthoyl-RH[Cha][Cha]NL[Aib]TRQR[Cha]-NH2) | 18 | 5.8 |  | 
13 | CC(C)C[C@H](NC(=O)[C@H](CC(N)=O)NC(=O)[C@H](CC1CCCCC1)NC(=O)[C@H](CC1CCCCC1)NC(=O)[C@H](Cc1c[nH]cn1)NC(=O)[C@H](CCCNC(=N)N)NC(=O)c1ccc2ccccc2c1)C(=O)NC(C)(C)C(=O)N[C@H](C(=O)N[C@@H](CCCNC(=N)N)C(=O)N[C@@H](CCC(N)=O)C(=O)N[C@@H](CCCNC(=N)N)C(=O)N[C@@H](CC1CCCCC1)C(N)=O)[C@@H](C)O [Compound 26] (2Naphthoyl-RH[Cha][Cha]NL[Aib]TRQR[Cha]-NH2) | 26 | 6 |  | 
